# Source: patent publication US20040180855A1, “Methods of treating thrombosis with reduced risk of increased bleeding times” (priority 2003, published 2004)
# Columns and labels:
# [1] = system: stasis-VT (vena cava thrombosis); experiment: Venous thrombosis, stasis VT model; format: in vivo; conditions: rat stasis VT
# Description: General Surgical Preparation Male Sprague Dawley rats (310 to 390 g) were anesthetized with Na-pentobarbital (50 mg/kg i.p.). The left jugular vein was cannulated with PE-50 tubing for drug administration, and the trachea was intubated with PE-205 tubing to ensure airway patency. […] Statistical Analysis In the venous and arterial thrombosis procedures, treatment effects on thrombus weight, baseline blood flow, and average blood flow during thrombosis were determined by analysis of variance with Dunnett's test for comparison to the vehicle group. […] Treatment effects on bleeding times were determined by analysis of variance with Dunnett's test for comparison to the vehicle group. Both post-treatment and pre-treatment bleeding times and the relative bleeding time increases in sec were analyzed. […]
# [2] = system: FeCl2-induced carotid artery thrombosis; experiment: Arterial thrombosis model (FeCl2 carotid artery); format: in vivo, rat; conditions: i.v. 12 mg/kg plus 12 mg/kg/hr
# Description: General Surgical Preparation Male Sprague Dawley rats (310 to 390 g) were anesthetized with Na-pentobarbital (50 mg/kg i.p.). The left jugular vein was cannulated with PE-50 tubing for drug administration, and the trachea was intubated with PE-205 tubing to ensure airway patency. In some animals, a carotid artery was cannulated with PE-50 tubing to obtain blood samples, and a procedure was followed as described in Schumacher et al., “Comparison of Thrombin Active-Site and Exosite Inhibitors and Heparin in Experimental Models of Arterial and Venous Thrombosis and Bleeding,” J. Pharmacol. Exp. Therap., Vol. 267 (1993), at pp. 1237-42; Schumacher et al., Effects of Antithrombotic Drugs in a Rat Model of Aspirin-Insensitive Arterial Thrombosis, Thromb Haemostasis, Vol. 69 (1993), at pp. 509-514; or Schumacher et al., Effect of a Novel Thrombin Active-Site Inhibitor on Arterial and Venous Thrombosis, Eur J Pharmacol., Vol. 259 (1994), at pp. 165-171, each of which is incorporated herein by reference. […]
# Arterial Thrombosis The left carotid artery was exposed and a piece of parafilm “M” (American National Can, Greenwich, Conn.) was inserted under the vessel. […] Carotid blood flow (CBF) was monitored continuously on a TA3800 physiologic recorder (Gould, Cleveland, Ohio). Total CBF was determined and normalized as percent of baseline (0 min) flow over 60 min to provide a measure of average blood flow during thrombus formation.
# Statistical Analysis In the venous and arterial thrombosis procedures, treatment effects on thrombus weight, baseline blood flow, and average blood flow during thrombosis were determined by analysis of variance with Dunnett's test for comparison to the vehicle group. […] Treatment effects on bleeding times were determined by analysis of variance with Dunnett's test for comparison to the vehicle group. Both post-treatment and pre-treatment bleeding times and the relative bleeding time increases in sec were analyzed. […]
# FXIIa = biological target: T1, FXIIa (Homo sapiens, UniProt P00748); experiment: Selectivity assay FXIIa; format: biochemical; conditions: Table 3
# T1 construct: purchased American Diagnostica
# T1 sequence (P00748 373-615 limits assumed, other chains not shown): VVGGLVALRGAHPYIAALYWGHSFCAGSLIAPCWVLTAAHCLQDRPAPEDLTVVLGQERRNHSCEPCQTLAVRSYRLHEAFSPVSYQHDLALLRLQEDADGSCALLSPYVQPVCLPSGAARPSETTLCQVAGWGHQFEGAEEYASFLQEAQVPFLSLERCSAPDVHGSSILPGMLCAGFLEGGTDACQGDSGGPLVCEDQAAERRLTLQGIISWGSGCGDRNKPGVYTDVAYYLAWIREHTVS
structure (smiles),measurement,setting,value
CC(C)(C)NC(=O)N1CCN(C(=O)N2C(=O)[C@H](CCCNC(=N)N)[C@H]2C(=O)O)CC1 [Example 4],effect on thrombus weight,[1]; i.v. 2+2 mg/kg+mg/kg/hr,little effect
same,reduction in thrombus weight,"[1]; i.v. 6+6 mg/kg+mg/kg/hr, FIG. 4",64%
same,decrease in thrombus weight,"[2]; rat carotid artery, FIG. 2",73%
same,average blood flow during thrombosis and vessel patency,[2]; rat,improvement
same,"effect on FeCl2-induced carotid artery thrombosis (carotid blood flow, FIG. 1)",[2]; rat,prevented
same,IC50,FXIIa,> 33 µM
